These results are taken from patent US9849127B2, “Means and methods for treating cancer” (Medizinische Hochschule Hannover, priority 2013, dated 2017).

Each structure is given as a SMILES string.

One data set deals with IDH1mut cancer cells. As to the kind of experiment: Alamar blue cell viability assay, IDH1mut cells. The class given is cell-based. As to the method: (§1) FIG. 1: IC50 values for IDH1wt and IDH1mut treated with compound HMS-101 for 72 hours.
A general note: Alamar Blue is a resazurin reagent that responds to reducing activity.

The next data set concerns IDH1wt cells. As to the kind of experiment: Alamar blue cell viability assay, IDH1wt cells. The format is cell-based. Conditions: IDH1wt cells in vitro, treated for 72 hours. Here is the method:
as §1

The test system of a further data set is IDH1 mutant enzyme. As to the kind of experiment: Intracellular 2HG levels in IDH1mutant cells (neomorphic activity). Conditions: 72 hours, 10 μM, versus control treated cells. The format is cell-based. The text has this: FIG. 2: D-2HG levels from IDH1mut cells treated with compound HMS-101 (drug) or solvent control.
The subject of data set [1] is primary human AML cells harboring the IDH1 mutation. As to the kind of experiment: Colony forming assay of primary human AML cells. The format is cell-based. Conditions: IDH1-mutated primary human AML cells compared to AML cells with wildtype IDH1 and CD34+ cells from healthy donors. The source says: FIG. 3: Colony forming assay of primary human AML cells with and without IDH1 mutation treated with solvent control (DMSO) or compound HMS-101. Human CD34^+ hematopoietic stem and progenitor cells from healthy donors were used as controls.

For data set [2] the test system is unchanged. As to the kind of experiment: Rate of apoptosis of primary human AML cells. The format is cell-based. Conditions: IDH1-mutated primary human AML cells compared to AML cells with wildtype IDH1 and CD34+ cells from healthy donors. The text has this:
FIG. 4: Rate of apoptosis of primary human AML cells with and without IDH1 mutation treated with solvent control (DMSO) or compound HMS-101. Human CD34^+ hematopoietic stem and progenitor cells from healthy donors were used as controls.

A short description of data set [3]: Toxicity testing in animals. Conditions: mice, 1 mg intraperitoneally daily for two weeks. The format is in vivo. Here is the method: The compound described herein has been given to mice at a dose of 1 mg intraperitoneally daily for two weeks.
Data set [4] concerns HoxA9 immortalized bone marrow cells expressing IDH1R132C. In words: Survival of mice transplanted with HoxA9 immortalized IDH1R132C bone marrow cells. The class given is in vivo. Conditions: 1 mg/mouse 5 days/week starting 5 days after transplantation, versus PBS; follow-up ongoing. As to the method:
FIG. 5: Survival of mice treated with HMS-101.
HoxA9 immortalized bone marrow cells from C57BL/6J mice were transduced with retroviral vectors expressing IDH1R132C and GFP. One million GFP-expressing sorted cells were injected intravenously in lethally-irradiated syngeneic recipient mice, accompanied by a life-sparing dose of 1×10^5 freshly isolated bone marrow cells from syngeneic mice. One cohort of mice was treated with HMS-101 at a dose of 1 mg/mouse for 5 days/week starting 5 days after transplantation. The control cohort was treated with PBS for 5 days/week starting 5 days after transplantation. The solid line represents the survival of PBS-treated mice, the dotted line represents the survival of HMS-101-treated mice. Follow-up and treatment are ongoing.

Data set [5] deals with R-2-hydroxyglutarate (R-2HG). As to the kind of experiment: Ratio R-2HG/S-2HG in serum of treated mice. The class given is in vivo. Conditions: treated mice versus PBS, 9 weeks after treatment, pooled serum. The text has this:
FIG. 6: Ratio of R-2-hydroxyglutarate (R-2HG) to S-2-hydroxyglutarate (S-2HG) in serum from mice treated with HMS-101 or solvent control (PBS) at 9 weeks after treatment. Serum from 3 mice were pooled per indicated measurement (9 mice for PBS, 12 mice for HMS-101).
2-hydroxyglutarate (R-2HG), in particular elevated values thereof, typically measured in terms of the ratio between R- and S-form (R-2HG/S-2HG) is a marker for leukemia in accordance with the present invention. […] This establishes both the usefulness of the mentioned ratio as a marker for leukemia and the beneficial effects of HMS-101.

As to `CN1CCN(C)[C@H](CCN2CC[C@H](c3ccc(F)cc3)C2)C1` [HMS-101], the “IC50 on IDH1wt cells relative to IDH1mut cells” value with IDH1mut cancer cells (72 hours) was 12 times. Moreover, the IC50 (as a rule, the concentration at which inhibition is half-maximal) with IDH1mut cancer cells (IDH1mut cancer cells in vitro, treated for 72 hours) was 1000 nM; with IDH1wt cells, 12 µM. Further, the “intracellular 2HG levels (D-2HG)” value with IDH1 mutant enzyme is “dramatically reduced”. Further, the colony forming potential entry in data set [1] was “reduced the colony forming potential”. Moreover, the rate of apoptosis result in data set [2] was “increased the rate of apoptosis”. Also, the “tolerability / visible signs of toxicity” value in data set [3] is on record as “well tolerated by the animals with no visible signs of toxicity”. In data set [4], the survival entry is given as “survival benefit”. Besides, the “ratio R-2HG/S-2HG in serum” value in data set [5] is “decrease of the ratio R-2HG/S-2HG”.
